Converted amounts (≈) assume the structure as drawn.
Key:
[1] = Inhibition of bovine corpus striatum PDE10A using [3H]cAMP or [3H]cGMP as substrate preincubated for 5 mins followed by substrate addition and measured after 30 mins by liquid scintillation counting method; set-up: species or system Bos taurus
[2] = Solubility in artificial interstitial fluid at pH 5 by HPLC analysis; assay type: physicochemical
[3] = target: hERG (KCNH2) (Homo sapiens, UniProt Q12809); assay: Inhibition of human ERG at 1 uM relative to control
[4] = target: cAMP and cAMP-inhibited cGMP 3',5'-cyclic phosphodiesterase 10A (Homo sapiens, UniProt Q9Y233); assay: Inhibition of human N-terminal FLAG-tagged PDE10A (1 to 90 residues) expressed in using African green monkey COS7 cells using [3H]cAMP or [3H]cGMP as substrate preincubated for 5 mins followed by substrate addition and measured after 30 mins by liquid scintillation counting method
[5] = Chromatographic hydrophobicity index, log D of the compound at pH 7.4 by reverse-phase HPLC analysis; assay type: physicochemical; conditions: buffer
[6] = target: Phosphodiesterase 4 (Homo sapiens, UniProt P27815+Q08499+Q07343+Q08493); assay: Inhibition of PDE4 (unknown origin); assay type: protein assay
[7] = target: cGMP-specific 3',5'-cyclic phosphodiesterase (Homo sapiens, UniProt O76074); assay: Inhibition of PDE5A (unknown origin)
[8] = target: Phosphodiesterase 6; assay: Inhibition of PDE6 (unknown origin); assay type: protein assay, Homo sapiens
[9] = Oral bioavailability in Wistar rat at 3 mg/kg; assay type: ADME, organism-based; conditions: in vivo
[10] = Unbound brain-to-plasma concentration ratio in Wistar rat at 3 mg/kg, po; assay type: ADME, organism-based
[11] = Half life in Wistar rat at 0.3 mg/kg, iv; assay type: ADME, organism-based; conditions: in vivo
[12] = test system: Rattus norvegicus; assay: Antipsychotic activity in po dosed Wistar rat assessed as inhibition of electric stimulation-induced conditioned avoidance responses measured up to 6 days; assay type: functional; conditions: 144 h, read-out: ID50 (the source's name)
[13] = Clearance in Wistar rat at 0.3 mg/kg, iv; conditions: in vivo
[14] = Volume of distribution at steady state in Wistar rat at 0.3 mg/kg, iv; conditions: in vivo
[15] = Intrinsic clearance in human liver microsomes; assay type: ADME, Microsome; conditions: read-out: CLH
[16] = Ratio of IC50 for PDE1 (unknown origin) to IC50 for bovine corpus striatum PDE10A
[17] = Ratio of IC50 for PDE4 (unknown origin) to IC50 for bovine corpus striatum PDE10A
[18] = Ratio of IC50 for PDE2A (unknown origin) to IC50 for bovine corpus striatum PDE10A
[19] = Ratio of IC50 for PDE3A (unknown origin) to IC50 for bovine corpus striatum PDE10A
[20] = Ratio of IC50 for PDE5A (unknown origin) to IC50 for bovine corpus striatum PDE10A
[21] = Ratio of IC50 for PDE6 (unknown origin) to IC50 for bovine corpus striatum PDE10A
[22] = Ratio of IC50 for PDE7B (unknown origin) to IC50 for bovine corpus striatum PDE10A
[23] = Ratio of IC50 for PDE8A (unknown origin) to IC50 for bovine corpus striatum PDE10A
[24] = Ratio of IC50 for PDE9A (unknown origin) to IC50 for bovine corpus striatum PDE10A
[25] = Ratio of IC50 for PDE11A (unknown origin) to IC50 for bovine corpus striatum PDE10A

Chain of hERG (KCNH2) (Q12809 whole entry, the tested form may be a part): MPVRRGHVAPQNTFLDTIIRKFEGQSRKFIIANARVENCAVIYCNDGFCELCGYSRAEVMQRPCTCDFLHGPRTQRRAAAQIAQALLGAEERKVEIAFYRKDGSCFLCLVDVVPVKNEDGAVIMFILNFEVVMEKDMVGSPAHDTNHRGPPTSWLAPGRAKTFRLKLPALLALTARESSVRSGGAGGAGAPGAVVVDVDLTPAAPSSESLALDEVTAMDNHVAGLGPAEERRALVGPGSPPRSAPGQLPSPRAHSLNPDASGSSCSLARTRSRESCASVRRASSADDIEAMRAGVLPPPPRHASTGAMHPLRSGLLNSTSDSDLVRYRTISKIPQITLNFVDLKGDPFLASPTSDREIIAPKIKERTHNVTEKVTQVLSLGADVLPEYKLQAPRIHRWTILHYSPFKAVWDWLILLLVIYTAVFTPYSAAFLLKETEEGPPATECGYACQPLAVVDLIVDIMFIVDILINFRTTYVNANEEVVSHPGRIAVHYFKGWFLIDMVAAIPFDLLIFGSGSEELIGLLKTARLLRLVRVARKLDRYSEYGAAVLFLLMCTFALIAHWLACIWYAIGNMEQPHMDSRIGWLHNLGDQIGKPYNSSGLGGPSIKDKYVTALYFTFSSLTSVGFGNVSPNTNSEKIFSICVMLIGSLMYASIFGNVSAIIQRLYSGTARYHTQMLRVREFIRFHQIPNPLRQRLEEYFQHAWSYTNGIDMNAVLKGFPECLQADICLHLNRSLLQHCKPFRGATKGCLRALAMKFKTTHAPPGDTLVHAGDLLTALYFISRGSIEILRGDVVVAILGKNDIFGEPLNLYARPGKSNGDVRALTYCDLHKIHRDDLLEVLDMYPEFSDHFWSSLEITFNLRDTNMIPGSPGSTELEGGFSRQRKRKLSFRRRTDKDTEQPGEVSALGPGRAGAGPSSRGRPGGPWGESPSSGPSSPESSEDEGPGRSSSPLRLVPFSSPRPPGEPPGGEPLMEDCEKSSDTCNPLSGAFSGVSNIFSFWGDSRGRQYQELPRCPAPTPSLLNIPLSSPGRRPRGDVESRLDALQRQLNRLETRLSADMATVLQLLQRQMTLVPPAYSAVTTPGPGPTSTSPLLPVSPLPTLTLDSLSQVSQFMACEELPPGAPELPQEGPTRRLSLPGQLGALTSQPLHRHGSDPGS
Chain of cAMP and cAMP-inhibited cGMP 3',5'-cyclic phosphodiesterase 10A (Q9Y233 whole entry, the tested form may be a part): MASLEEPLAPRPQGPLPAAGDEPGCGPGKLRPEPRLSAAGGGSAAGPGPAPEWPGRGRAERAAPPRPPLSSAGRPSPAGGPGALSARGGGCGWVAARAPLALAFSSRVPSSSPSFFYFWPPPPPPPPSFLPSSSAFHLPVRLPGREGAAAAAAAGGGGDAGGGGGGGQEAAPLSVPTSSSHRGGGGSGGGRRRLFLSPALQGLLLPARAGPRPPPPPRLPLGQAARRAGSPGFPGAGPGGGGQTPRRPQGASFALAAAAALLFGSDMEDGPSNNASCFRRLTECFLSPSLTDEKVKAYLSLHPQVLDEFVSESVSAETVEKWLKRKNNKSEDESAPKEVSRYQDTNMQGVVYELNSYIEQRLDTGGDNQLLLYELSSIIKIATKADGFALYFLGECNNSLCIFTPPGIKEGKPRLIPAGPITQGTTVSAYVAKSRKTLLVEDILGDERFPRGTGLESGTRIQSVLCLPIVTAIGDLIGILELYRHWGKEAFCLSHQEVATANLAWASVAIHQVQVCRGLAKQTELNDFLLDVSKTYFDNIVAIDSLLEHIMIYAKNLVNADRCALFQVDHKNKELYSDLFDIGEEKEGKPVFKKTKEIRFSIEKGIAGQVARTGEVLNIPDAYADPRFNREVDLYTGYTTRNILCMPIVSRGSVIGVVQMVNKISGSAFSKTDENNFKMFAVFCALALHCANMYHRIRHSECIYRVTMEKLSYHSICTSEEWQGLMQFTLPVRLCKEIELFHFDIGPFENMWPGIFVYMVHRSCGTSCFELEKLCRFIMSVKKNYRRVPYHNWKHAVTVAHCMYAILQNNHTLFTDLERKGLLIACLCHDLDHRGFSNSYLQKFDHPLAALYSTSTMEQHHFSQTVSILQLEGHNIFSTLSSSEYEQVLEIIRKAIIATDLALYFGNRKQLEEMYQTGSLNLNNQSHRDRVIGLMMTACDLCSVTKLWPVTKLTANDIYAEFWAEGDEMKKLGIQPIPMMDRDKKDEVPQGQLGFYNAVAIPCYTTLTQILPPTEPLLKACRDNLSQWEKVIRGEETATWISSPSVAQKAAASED

Compound | IC50 [1] | solubility [2] | CHI [5] | inhibition at 1 µM [3] | also measured
Cc1nc2c(C)cccc2nc1-c1cc2nc(N3CCCC3)cc(NC3CCOCC3)n2n1.Cl | 0.78 nM | 32 µg/mL | – | 94% | –
Cc1nc2ccccc2nc1-c1cn2nc(N3CCCC3)cc(NC3CCOCC3)c2n1 | 0.41 nM | – | – | – | –
Cc1nc2ccccc2nc1-c1nc2nc(N3CCCC3)cc(NC3CCOCC3)n2n1 | 6 nM | – | – | – | –
Cc1nc2ccccc2nc1-c1cn2c(NC3CCOCC3)cc(N3CCCC3)nc2n1 | 71 nM | – | – | – | –
Cc1ccc2nc(-c3cc4nc(N5CCCC5)cc(NC5CCOCC5)n4n3)c(C)nc2c1.Cl | 0.46 nM | 17 µg/mL | – | 80% | –
Cc1nc2ccccc2nc1-c1cc2nc(N3CCCC3)cc(NC3CCOCC3)n2n1 | 0.15 nM | 8.1 µg/mL (≈ 18.9 µM) | – | 63% | –
Cc1nc2ccccc2nc1-c1cc2nc(N3CC[C@@H](F)C3)cc(N(C)C3CCOCC3)n2n1.Cl | – | 4.8 µg/mL | – | – | IC50 [4]: 0.061 nM; bioavailability [9]: 19.2%; Kp uu ([10]; Wistar, brain and plasma, read-out: K(p,uu,brain)): 0.61; half-life [11]: 192 min; microsomal CLint [15]: 127 µL/min/mg; Ratio IC50 [16]: > 1000; Ratio IC50 [17]: > 1000; Ratio IC50 [18]: > 1000; Ratio IC50 [19]: > 1000; Ratio IC50 [20]: > 1000; Ratio IC50 [21]: > 1000; Ratio IC50 [22]: > 1000; Ratio IC50 [23]: > 1000; Ratio IC50 [24]: > 1000; Ratio IC50 [25]: > 1000

Further lines, with some results ahead:

IC50 [1] | solubility [2] | CHI [5] | Compound | inhibition at 1 µM [3] | also measured
0.14 nM | – | – | Cc1nc2ccc(F)cc2nc1/C=C/c1nc(NC2CCOCC2)cc(N2CCCC2)n1 | – | –
0.09 nM | 118 µg/mL | 2.79 | Cc1nc2ccc(F)cc2nc1-c1cc2nc(N3CC[C@@H](F)C3)cc(NCC(C)(C)O)n2n1.Cl | 23% | IC50 [4]: 0.062 nM; IC50 [6]: 0.289 µM; IC50 [7]: 437 nM; IC50 [8]: 0.561 µM; bioavailability [9]: 43.7%; K(p,uu,brain) ([10]; brain): 0.5; half-life [11]: 185 min; ED50 [12]: 0.32 mg/kg; CL [13]: 526 mL/h/kg; Vdss [14]: 2307 mL/kg
0.0081 nM | 8.7 µg/mL | 3.07 | Cc1nc2ccc(F)cc2nc1-c1cc2nc(N3CCCC3)cc(NCC(C)(C)O)n2n1.Cl | 50% | –
0.09 nM | > 1000 µg/mL | 3.4 | Cc1ccc2nc(C)c(-c3cc4nc(N5CCCC5)cc(NC5CCOCC5)n4n3)nc2c1.Cl | 64% | –
0.033 nM | 19 µg/mL | – | Cc1ccc2nc(C)c(-c3cc4nc(N5CCCC5)cc(N[C@H]5CC[C@H](O)CC5)n4n3)nc2c1.Cl | – | –
0.036 nM | 62 µg/mL | 3.29 | Cc1ccc2nc(C)c(-c3cc4nc(N5CCCC5)cc(N[C@H]5CC[C@](C)(O)CC5)n4n3)nc2c1.Cl | 29% | –
0.08 nM | 5.1 µg/mL | 4.1 | CO[C@H]1CC[C@H](Nc2cc(N3CCCC3)nc3cc(-c4nc5cc(C)ccc5nc4C)nn23)CC1.Cl | 40% | –
0.0088 nM | 15 µg/mL | 3.23 | Cc1nc2ccc(F)cc2nc1-c1cc2nc(N3CCCC3)cc(N[C@H]3CC[C@](C)(O)CC3)n2n1.Cl | 12% | –
0.02 nM | 121 µg/mL | – | Cc1nc2cccc(C)c2nc1-c1cc2nc(N3CCCC3)cc(NC3CCOCC3)n2n1.Cl | 99% | –
